Results: patent US20250161477A1, “NOVEL METHODS OF THERAPY” (BIVICTRIX LIMITED, priority 2022, published 2025)

B1: BVX04-a0094-AB4A-1 (CD33xCD56 Bi-Fab ADC) (bispecific antibody, not shown: large carriers)
heavy 1: EVQLVQSGAEVKKPGSSVKVSCKASGYTITDSNIHWVRQAPGQSLEWIGYIYPYNGGTDYNQKFKNRATLTVDNPTNTAYMELSSLRSEDTAFYYCVNGNPWLAYWGQGTLVTVSS
light 1: DIQLTQSPSTLSASVGDRVTIICRASESLDNYGIRFLTWFQQKPGKAPKLLMYAASNQGSGVPSRFSGSGSGTEFTLTISSLQPDDFATYYCQQTKEVPWSFGQGTKLEIK
heavy 2: EVQLVQSGAEVKKPGSSVKVSCKASGGTFTGYYMHWVRQAPGQGLEWMGWINPNSGGTNYAQKFQGRVTMTRDTSISTAYMELSRLRSDDTAVYYCARDLSSGYSGYFDYWGQGTLVTVSS
light 2: DVVMTQSPLSLPVTPGEPASISCRSSQSLLHSNGYNFLDWYLQKPGQSPQLLIYLGSNRASGVPDRFSGSGSGTDFTLKISRVEADDVGVYYCMQSLQTPWTFGHGTKVEIK

Tests used:
[1] = tested on: Human CD34+ progenitor cells; experiment: Colony forming unit assay: differentiation of healthy CD34+ progenitor cells to myeloid CD33+ cells
Protocol: Methocult was thawed at 4° C. overnight. Methocult was shaken and allowed to stand at room temperature until all the bubbles had dispersed and aliquoted into 3 mL aliquots. A 6-point dose titration was prepared for each antibody in PBS to achieve the following final concentrations: 10, 3, 1, 0.1, 0.01 and 0 nM. Enough of each dilution was prepared to test activity across duplicate wells. Each titration was pipetted into a 1.5 mL tube. CD34+ cells were thawed at 37° C. and suspended in 2% FBS IMDM. 300 μL of suspension containing 3000 CD34+ cells were pipetted into each 1.5 mL tube containing antibody titration and the solution gently was mixed by pipetting. […] The total volume of antibody dilution added to the cells was 30 μL in all conditions. The cell suspension/conjugate mix was pipetted into a 3 mL aliquot of Methocult, vortexed for 5 seconds and allowed to stand at room temperature until the bubbles had disappeared. Using an 18-gauge blunt needle and 6 mL syringe, 1 mL of cell/conjugate/Methocult mix was transferred to a well of a Smart dish and each condition was tested across duplicate wells. Each plate was rocked to ensure the Methocult covered the entire well surface evenly and then placed in a 37° C., 5% CO2 incubator. The colonies were counted on day 9 and day 14 and the data plotted in Excel.

human CD56 (human) = human CD56 (human) (UniProt P13591); experiment: cell-based or functional assay
human CD33 (human) = human CD33 (human) (UniProt P20138); experiment: cell-based or functional assay
Sequence of human CD33 (human) (P20138 18-364 R69G limits assumed): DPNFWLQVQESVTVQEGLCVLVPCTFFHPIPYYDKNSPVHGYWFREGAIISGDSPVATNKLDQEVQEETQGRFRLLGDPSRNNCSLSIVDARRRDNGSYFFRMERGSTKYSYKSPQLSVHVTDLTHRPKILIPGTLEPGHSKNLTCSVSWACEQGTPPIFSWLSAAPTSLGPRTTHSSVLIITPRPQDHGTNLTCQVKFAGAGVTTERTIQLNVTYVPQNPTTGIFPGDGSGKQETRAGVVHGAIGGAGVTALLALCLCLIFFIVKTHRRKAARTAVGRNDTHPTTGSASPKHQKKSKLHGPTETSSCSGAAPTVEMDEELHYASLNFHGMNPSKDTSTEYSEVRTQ

Sequence of human CD56 (human) (P13591 other isoform, or with tags, fused parts or gaps limits assumed): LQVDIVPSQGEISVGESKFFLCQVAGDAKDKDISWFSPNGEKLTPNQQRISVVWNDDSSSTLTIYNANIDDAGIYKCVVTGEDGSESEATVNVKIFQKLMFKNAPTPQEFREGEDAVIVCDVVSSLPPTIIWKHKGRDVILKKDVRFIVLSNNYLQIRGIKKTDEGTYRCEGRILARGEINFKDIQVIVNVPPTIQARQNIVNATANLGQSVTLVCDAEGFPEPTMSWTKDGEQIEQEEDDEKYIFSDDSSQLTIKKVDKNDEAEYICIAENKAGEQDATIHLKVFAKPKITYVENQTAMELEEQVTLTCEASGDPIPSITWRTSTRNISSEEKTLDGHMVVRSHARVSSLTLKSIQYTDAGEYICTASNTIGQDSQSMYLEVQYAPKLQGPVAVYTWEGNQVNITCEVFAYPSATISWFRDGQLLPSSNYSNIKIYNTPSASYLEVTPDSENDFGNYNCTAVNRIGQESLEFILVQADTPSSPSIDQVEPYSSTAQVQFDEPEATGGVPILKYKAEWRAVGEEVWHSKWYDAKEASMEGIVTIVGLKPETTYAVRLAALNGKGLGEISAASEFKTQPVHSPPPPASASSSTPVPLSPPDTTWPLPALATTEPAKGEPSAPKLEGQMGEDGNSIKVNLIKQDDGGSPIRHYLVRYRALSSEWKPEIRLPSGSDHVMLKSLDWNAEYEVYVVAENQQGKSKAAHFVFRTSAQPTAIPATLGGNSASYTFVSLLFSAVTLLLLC

Molecule	Av. % of Colonies Surviving at 10 nM vs Control ([1]; 9 days of incubation, Experiment 1)	Av. % of Colonies Surviving at 10 nM vs Control ([1]; 9 days of incubation, Experiment 2)	Av. % of Colonies Surviving at 10 nM vs Control ([1]; 14 days of incubation, Experiment 1)	Av. % of Colonies Surviving at 10 nM vs Control ([1]; 14 days of incubation, Experiment 2)	Mean IC50, cell kill assay (WST-1, 96 h) on KASUMI-3 cells (CD33+/CD56+) (human CD56 (human))	Mean IC50, cell kill assay (WST-1, 96 h) on KE-37 cells (CD33-/CD56+) (human CD56 (human))	Mean IC50, cell kill assay (WST-1, 96 h) on KASUMI-3 cells (CD33+/CD56+) (human CD33 (human))	Mean IC50, cell kill assay (WST-1, 96 h) on SET-2 cells (CD33+/CD56-) (human CD33 (human))
GEMTUZUMAB: Gemtuzumab (In House), CD33 monospecific antibody, unconjugated	102.33%	113.3%	100.5%	82.8%				
B1					0.061 nM	> 30 nM	0.061 nM	> 30 nM
